Experimental data taken from a melting point compilation (Tetko et al.; mined from patent text by program, amines drawn as free bases though some values may be those of a salt).

Row | Compound | melting point [°C]
1 | CCN(CC)CCOc1ccc(Nc2ncc3c(n2)N(C)C(=O)N(c2ccccc2Br)C3)cc1 | 144
2 | COC(=O)c1nccc(N)n1 | 140 to 142
3 | CC(C)(C)NCC(O)c1cc(Cl)c(NC(=O)c2ccccc2)c(Cl)c1 (stereo not drawn) | 177 to 182
4 | O=C1NCCc2oc3ccccc3c21 | 158 to 161
5 | CCc1nn(C2CCCC2)c2cc(C(=O)NCCc3ccncc3)ccc12 | 123 to 126
6 | COC(=O)c1ccc2c(c1)OCC2(C)Cc1ccccc1 (stereo not drawn) | 52
7 | CC(=O)OCn1c(C(=O)OC(C)C)nc(Cl)c1Cl | 81 to 82
8 | COC(=O)c1ccc[nH]c1=O | 148 to 151
9 | N#Cc1nn(-c2c(Cl)cc(C(F)(F)F)cc2Cl)c(N)c1C1CC1(Br)Br (stereo not drawn) | 178 to 179
10 | CN1C(=O)CC2(CNC(=O)C2)C1=O (stereo not drawn) | 201 to 204
11 | COC(=O)C1Cc2cc(-c3ccc(C(C)O)cc3)ccc2O1 (stereo not drawn) | 98 to 100
12 | Cn1cc(CC2CCN(CCN3c4cccc5cccc(c45)S3(=O)=O)CC2)c2cc(F)ccc21 | 150 to 152
13 | O=c1[nH]cnc2oc(-c3ccccc3)cc12 | 320 to 322
14 | Cc1c(F)c(N2CCNC(C)C2)c(F)c2c1c(=O)c(C(=O)O)cn2C1CC1 (stereo not drawn) | 187 to 188
15 | COc1ccc2c(c1OC)CCC(NC(C)=O)C2O (stereo not drawn) | 184 to 186
16 | COc1ccc(C)cc1NC(=O)Nc1ccc(N2CCN(C(=O)OC(C)(C)C)C(C)C2)cc1 (stereo not drawn) | 167 to 168
17 | COc1cc(C)c(C(=O)CCCCCCCCCCO)c(O)c1OC | 81
18 | COC1C2=C3C(=CN1OC)OCCC3CC(CCC#N)C2 (stereo not drawn) | 105 to 107
19 | COc1ccc2cccc(CO)c2c1 | 72 to 74
20 | CNc1cc(OC)cc(NCCOC)c1[N+](=O)[O-] | 84
21 | Nc1ccc(F)c2c1C(=O)c1ccccc1-2 | 205 to 206
22 | CN=C(NC#N)NCCSCc1c[nH]cn1 | 138 to 140
23 | O=C(O)CCCc1cc2nc(Cl)ccc2n1S(=O)(=O)c1ccc2c(c1)OCCO2 | 166
24 | Clc1ccc(OCc2ccccc2)c(OCc2ccccc2)c1Cl | 74 to 75.5
25 | N#Cc1nn(C2CCCC2)c2nc(-c3ccncc3)nc(N)c12 | 219 to 221
26 | O=C1CS(=O)(=O)C(C(=O)Nc2ccc(Cl)cc2)Cc2cc3c(cc21)OCCO3 (stereo not drawn) | 273 to 274

Row | Compound | melting point [°C]
27 | CN(O)C(=O)NCCc1cccc(Oc2ccccc2)c1 | 84.5 to 86
28 | O=S1(=O)CCN2C=C(F)C=C(c3ccc(Oc4ccccc4)cc3)C2=N1 | 91.9 to 92
29 | COc1ccc(C=CC(=O)O)cc1-c1cc2c(cc1OCCCCCCCC(=O)O)C(C)(C)CCC2(C)C | 212 to 214
30 | CC(=O)OC(C(C(=O)C(C)(C)C)n1cncn1)C(Cl)(Cl)Cl (stereo not drawn) | 115 to 119
31 | C1=C(c2c[nH]c3ccccc23)CCNC1 | 185 to 186
32 | C#CCCCCCCCOc1cccc(C(N)=O)c1 | 82 to 83
33 | CSc1cc(C)nc(SC)c1NC(=O)CN1CCN(CCCSc2nc3ccccc3o2)CC1 | 160 to 161
34 | CN[C@@H]1CCCC[C@H]1NC (relative stereo) | 17
35 | CN(C)c1cc(F)c(S(=O)(=O)N(C)C)cc1-n1c(=O)cc(C(F)(F)F)n(C)c1=O | 185 to 194
36 | N#CC1(c2ccccc2)CCCCC1 | 120 to 122
37 | CC(C)CN(C)c1ccccc1CS(=O)c1nc2ncccc2[nH]1 (stereo not drawn) | 116 to 118
38 | COc1nc(C)c(C)nc1N(C)C(=O)N1CCN(c2cc(C)cc(C)c2)CC1 | 94 to 96
39 | NC(=S)c1nccc(F)c1Cn1ccnc1 | 154 to 156
40 | O=C(Nc1ccc(C(F)(F)F)cc1)N1CC(c2ncc(Cl)s2)C(c2ccc(F)cc2)=N1 (stereo not drawn) | 188 to 189
41 | NS(=O)(=O)c1ncccc1C(=O)OC1COC1 | 140 to 142
42 | Cn1ccc(=O)c(OCc2ccccc2)c1C(O)c1ccccn1 (stereo not drawn) | 202 to 204
43 | CN(C)Cc1ccc(CSCCNc2ncc(Cc3ccn(C)c(=O)c3)c(=O)[nH]2)o1 | 129 to 132
44 | CC(C)(C)OC(=O)N[C@@]1(C(=O)OC(C)(C)C)CC(=O)[C@H]2[C@H](C(=O)OC(C)(C)C)[C@H]21 | 144 to 146
45 | CC(C)N(Cc1ccc(COc2cccc3c2CN(C2CCC(=O)NC2=O)C3=O)cc1)C(C)C (stereo not drawn) | 201 to 203
46 | O=C(CC(=O)C(F)F)c1ccc(Cl)cc1 | 65 to 66.5
47 | O=C(NCc1ccc(Cl)cc1)c1cnc2c(F)cc(C#CCO)cc2c1O | 277 to 279
48 | CC(C)(Nc1ccc(OCc2ccccc2)cc1)C(=O)O | 210
49 | COC(=O)[C@H](CC(=O)O)NC(=O)c1cccc(NC(=O)c2ccc(C(=N)N)cc2)c1 | 248 to 249
50 | Cc1ccc(O)c(NC(=O)c2ccc(OCCCCc3ccccc3)cc2)c1 | 138 to 140
51 | C[C@@H](n1ncn(-c2ccc(-n3nccn3)cc2)c1=O)[C@](O)(Cn1cncn1)c1ccc(F)cc1F | 213 to 215
52 | Cc1cccc(C(=O)C(Br)c2ccnc(F)c2)c1 (stereo not drawn) | 66 to 67

Row | Compound | melting point [°C]
53 | CCOC(=O)c1c(Br)nn(C)c1S(N)(=O)=O | 96 to 98
54 | CN1CCN(c2cccc(-c3cnn4c(N)c(-c5ccccc5Cl)cnc34)c2)CC1 | 200 to 203
55 | Cc1ccc(S(=O)(=O)c2cc3cnc(C)nc3nc2O)cc1 | > 200
56 | CC(C)C(=O)N1CCC(CNc2ccc(Cl)cc2C(=O)Nc2ccc(Cl)cn2)CC1 | 99 to 101
57 | O=C(O)COc1cccc2c1Cc1sc(SCCCC(c3ccccc3)c3ccccc3)nc1-2 | 110 to 112
58 | COc1ccc(S(=O)(=O)N2Cc3ccccc3N(C(=O)COc3ccccc3)CC2C(=O)O)cc1 (stereo not drawn) | 188 to 191
59 | O=S(=O)(c1ccc(O)c(Br)c1)N1c2ccc(Br)cc2-c2ccccc2C1c1ccccc1 (stereo not drawn) | 237 to 239
60 | Cc1nn(-c2ccccc2)c(-c2ccccc2)c1CC(=O)O | 159 to 161
61 | CC(=O)NNC(=O)c1[nH]c2ccccc2c1Cl | 253 to 255
62 | COc1ccc2c(c1)-c1c(nn(-c3ccccn3)c1O)CC2 | 116 to 117
63 | NC(=O)Cc1ccc(OCCN(CC(=O)c2ccc(OCc3ccccc3)c(OCc3ccccc3)c2)Cc2ccccc2)cc1 | 99 to 101
64 | O=CN1CCN(c2nc3cccccc-3n2)CC1 | 170 to 173
65 | COc1ccccc1-c1ccc(C(=O)N2Cc3cccn3Cc3ccccc32)cc1C | 133 to 135
66 | CCCOc1cc(CCC(=O)O)ccc1OCCCc1cn(-c2ccc(C(F)(F)F)cn2)nc1OCC | 106 to 107
67 | Cc1oc(-c2ccc(C(F)(F)F)cc2)nc1COc1ccc(/C=C/Cn2oc(=O)[nH]c2=O)cc1 | 128 to 130
68 | O=c1ccn(-c2cccc(C(F)(F)F)c2)nc1-c1ccnn1-c1ccccc1 | 156 to 157
69 | N#CSc1cnn(-c2nc(F)c(C(F)(F)F)cc2Cl)c1N | 109 to 114
70 | N#CCCNC(=O)c1cccc(-c2cccc(Oc3ccc4c(c3)CCC4)n2)c1 | 122 to 123
71 | Cn1c(=O)cc(CBr)c2ccccc21 | 188 to 190
72 | FC(F)(F)c1cccc(Nc2nc3ccccc3o2)c1 | 193 to 194
73 | Cc1c(Cl)ccc(S(C)(=O)=O)c1C=NO | 164 to 168
74 | c1cncc(OCCCn2cc(-c3cc4nccnc4[nH]3)c3ccccc32)c1 | 208 to 209
75 | Cc1oc(-c2ccc(-c3ccccc3)cc2)nc1CCOc1ccc(C[C@H](OCC(F)(F)F)C(=O)O)c2ccccc12 | 199 to 200
76 | Nc1sc2c(c1C(=O)c1ccc(Cl)cc1)CCC(Cc1ccccc1)C2 (stereo not drawn) | 60 to 62
77 | CC1(O)CN(C(=O)c2cc(C(C)(C)C)c(O)c(C(C)(C)C)c2)C1 | 148 to 153
78 | NC(=O)c1ncn2c(-c3ccccc3)ccnc12 | 226 to 228

Row | Compound | melting point [°C]
79 | COC(OC)C(C)NC1=Nc2ccc(Cl)cc2C(c2ccccc2Cl)=NC1 (stereo not drawn) | 153 to 155
80 | COc1ccc2[nH]cc(C#N)c2c1 | 147
81 | CCNc1nc(SC)nc(SC)c1[N+](=O)[O-] | 149 to 150
82 | COCc1cc(-c2ncc3[nH]c4cccc(OCc5ccccc5)c4c3c2COC)no1 | 133 to 135
83 | CC(=O)C1C(=O)CN(Cc2ccccc2)C1=O (stereo not drawn) | 74 to 75
84 | COC(=O)c1ccc(N2CCCC2=O)c(N)c1 | 136 to 138
85 | N#CCN1C(=O)COc2ccc([N+](=O)[O-])cc21 | 173
86 | COC(=O)NC(=O)NS(=O)(=O)c1ccc([N+](=O)[O-])cc1 | 150 to 158
87 | O=C(Cl)c1ccc2ccccc2c1O | 87 to 88
88 | N#CC1CC(=O)c2cc(F)ccc2O1 (stereo not drawn) | 87 to 89
89 | CN(C)S(=O)(=O)N[Si](C)(C)C | 83 to 86
90 | COc1cc(Oc2cccc(OC(F)(F)F)c2)nc(C(=O)O)c1 | 64 to 66
91 | CNC(=O)N1CC(Oc2cccc(Cl)c2)C1 | 140 to 141
92 | CC(C)OC(=O)c1cn(-c2cccc(Cl)c2)cn1 | 109
93 | CC(=O)OCC1=C(C(=O)OC(c2ccccc2)c2ccccc2)N2C(=O)C(NC(=O)Cc3csc(-c4ncccc4O)n3)C2SC1 (stereo not drawn) | 176 to 178
94 | CCOc1ccc(S(=O)(=O)N2CCN(C)CC2)cc1-c1nc2cccnc2c(=O)[nH]1 | 212 to 215
95 | O=C(O)c1ccc(OC(F)(F)F)c(Cl)c1 | 110 to 112
96 | CCOC(=O)Cc1csc2nc(C(=O)NCc3cccc(OC)c3)[nH]c(=O)c12 | 169 to 171
97 | O=C(Cn1c(-c2ccc(Cl)cc2)nc2cccnc21)Nc1ccccc1Cl | 232 to 236
98 | Nc1ccc2ccc(OCCN3CCOCC3)nc2n1 | 164
99 | CC(=C(C#N)N=CN(C)C)N1CCCC1 | 49 to 53
100 | OCC1=Cc2cc(Cl)ccc2Sc2sccc21 | 117 to 120
101 | COc1cccc2c1OC(CN1CC=C(c3c[nH]c4cc(F)ccc34)CC1)CO2 (stereo not drawn) | 184 to 185
102 | COc1ccc(-n2ccn([C@H](C)[C@@]3(c4ccc(F)cc4F)CO3)c2=O)cc1 | 150 to 151
103 | O=C(COc1ccc(CN2CCOCC2)cc1)N1CCN(c2ccc(N3C[C@H](CNC(=S)C4CC4)OC3=O)cc2F)CC1 | 138 to 141
